Reference: patent US20160279079A1, “COMPOSITIONS AND METHODS FOR TREATING BONE DISEASES” (INDIANA UNIVERSITY RESEARCH AND TECHNOLOGY CORPORATION, priority 2013, published 2016)
“Also recorded” adds a separate entry of the source. Where two headings read alike, the source gives them in different places.

Key:
[1] = test system: RAW264.7 mouse pre-osteoclast (monocyte/macrophage) cells; assay: Cell mortality and live cell numbers (trypan blue, hemacytometer); type: cell-based
Procedure: (§1) METHOD EXAMPLE. Cell culture. MC3T3 E1 mouse osteoblast-like cells (clone 14—MC3T3 E1-14; and no clonal cells in supplementary figures), and RAW264.7 mouse pre-osteoclast (monocyte/macrophage) cells were cultured in αMEM containing 10% fetal bovine serum and antibiotics (50 units/ml penicillin, and 50 μg/ml streptomycin; Life Technologies, Grand Island, N.Y., USA). Cells were maintained at 37° C. and 5% CO2 in a humidified incubator. Cell mortality and live cell numbers were determined 24 h after the treatment with 20 ng/ml RANKL (PeproTech, Rocky Hills, N.C., USA) in response to 0.1-20 μM salubrinal or 1-20 μM guanabenz acetate (Tocris Bioscience, Ellisville, Mo., USA). Cells were stained with trypan blue and the numbers of live and dead cells were counted using a hemacytometer.
METHOD EXAMPLE. Inhibition of osteoclastogenesis of RAW264.7 cells by salubrinal. The primary aim of this study is to evaluate the effects of salubrinal on osteoclastogenesis. In response to 0.1-20 μM salubrinal for 24 h, cell mortality and live cell numbers of RAW264.7 pre-osteoclasts was examined. […] The number of live cells was increased by ˜50% by incubation with RANKL, and administration of 10-20 μM salubrinal reduced the numbers approximately by 10% (FIG. 3B).
METHOD EXAMPLE. Inhibitory effects of guanabenz on osteoclastogenesis of RAW264.7 cells. To further examine a potential involvement of p-eIF2α in regulation of osteoclastogenesis, we employed guanabenz that also acts as an inhibitor of de-phosphorylation of eIF2α was evaluated. […] Compared to the number of TRAP-positive multi-nucleated cells of 377 39 (RANKL only), guanabenz reduced the number of differentiated osteoclasts to 364±38 (1 μM), 288±51 (5 μM), 189±25 (10 μM), and 73±16 (20 μM).

[2] = test system: p-ERK; assay: Western immunoblotting, p-ERK in RAW264.7 cells; type: cell-based, mouse; conditions: 20 μM salubrinal
Procedure: (§2) METHOD EXAMPLE. Western Immunoblotting. Cells were lysed in a radioimmunoprecipitation assay (RIPA) buffer containing protease inhibitors (Santa Cruz Biotechnology, Santa Cruz, Calif., USA) and phosphatase inhibitors (Calbiochem, Billerica, Mass., USA). Isolated proteins were fractionated using 10-15% SDS gels and electro-transferred to Immobilon-P membranes (Millipore, Billerica, Mass., USA). The membrane was incubated for 1 h with primary antibodies followed by 45 min incubation with goat anti-rabbit or anti-mouse IgG conjugated with horseradish peroxidase (Cell Signaling, Danvers, Mass., USA). We used antibodies against ATF4, NFATcl (Santa Cruz), p-eIF2α (Thermo Scientific, Waltham, Mass., USA), eIF2α, caspase 3, cleaved caspase 3, p38 and p-p38 mitogen activated protein kinase (MAPK), extracellular signal-regulated kinase (ERK) and p-ERK, nuclear factor kappa B (NFκB) p65 and p-NFκB p65 (Cell Signaling), and β-actin (Sigma). Protein levels were assayed using a SuperSignal west femto maximum sensitivity substrate (Thermo Scientific), and signal intensities were quantified with a luminescent image analyzer (LAS-3000, Fuji Film, Tokyo, Japan).
(§3) METHOD EXAMPLE. Temporal profile of p-eIF2α and NFATcl. […] Note that the normalized level of “1” in FIG. 6C was defined as the level for the cells that were not treated with RANKL without administration of guanabenz.

[3] = test system: p-p38 MAPK; assay: Western immunoblotting, p-p38 MAPK in RAW264.7 cells; type: cell-based, mouse; conditions: 20 μM salubrinal
Procedure: as §2, §3

[4] = test system: p-NFκB; assay: Western immunoblotting, p-NFκB in RAW264.7 cells; type: cell-based, mouse; conditions: 20 μM salubrinal
Procedure: as §2, §3

[5] = test system: MC3T3 E1 mouse osteoblast-like cells (clone 14); assay: Cell mortality and proliferation of MC3T3 E1-14 cells; type: cell-based; conditions: 5-20 μM salubrinal
Procedure: as §1
(§4) METHOD EXAMPLE. Enhanced mineralization of MC3T3 E1-14 cells by salubrinal. Prior to examining the effects of salubrinal on osteoclastogenesis, its effects on development of osteoblasts was tested, focusing on cell viability, phosphorylation of eIF2α (p-eIF2α), expression of ATF4 and osteocalcin, and matrix mineralization. […] The enhanced mineralization was also observed in non-clonal MC3T3 E1 cells (Supplementary FIG. S1).

[6] = test system: cleaved caspase 3; assay: Western immunoblotting, cleaved caspase 3 in MC3T3 E1-14 cells; type: cell-based, mouse; conditions: 10 μM salubrinal, 24 h
Procedure: as §2
METHOD EXAMPLE. Enhanced mineralization of MC3T3 E1-14 cells by salubrinal. […]

[7] = test system: MC3T3 E1-14 cells; assay: Mineralization assay (Alizarin Red S staining); type: cell-based, mouse; conditions: 3-week incubation in an osteogenic medium
Procedure: METHOD EXAMPLE. Mineralization assay. Mineralization of extracellular matrix was assayed by Alizarin Red S staining. MC3T3-E1 cells were plated in 6-well plates. When cells were confluent, 50 μg/ml of ascorbic acid (Wako Chemicals, Richmond, Va., USA) and 5 mM β-glycerophosphate (Sigma) were added. The medium was changed every other day, and staining was conducted after 3 week. Cells were washed with PBS twice and fixed with 60% isopropanol for 1 min at room temperature, followed by rehydration with distilled water for 3 min at room temperature. They were stained with 1% Alizarin red S (Sigma) for 3 min and washed with distilled water.
as §4

SMILES	Cell mortality ratio ([1]; 0.1-20 μM salubrinal, 24 h, presence and absence of RANKL)	reduction of the number of live cells ([1]; 10-20 μM salubrinal, 24 h, with RANKL)	cell mortality ([1]; absence of RANKL administration)	phosphorylation level of ERK [2]	phosphorylation level of p38 MAPK [3]	phosphorylation level of NFκB [4]	cell mortality [5]	cell proliferation [5]	expression level of cleaved caspase 3 [6]	mineralization (Alizarin red S staining area) [7]	cell mortality [1]
O=C(/C=C/c1ccccc1)NC(NC(=S)Nc1cccc2cccnc12)C(Cl)(Cl)Cl (centres unmarked) [salubrinal]	did not present statistically significant differences	~10%	did not significantly alter	did not significantly alter; also recorded: no detectable changes	did not significantly alter; also recorded: no detectable changes	did not significantly alter; also recorded: no detectable changes	did not increase cell mortality or inhibit cell proliferation	did not increase cell mortality or inhibit cell proliferation	did not elevate	enhanced mineralization of MC3T3 E1-14 cells in a dose dependent manner	–
N=C(N)N/N=C/c1c(Cl)cccc1Cl [guanabenz]	–	–	–	–	–	–	–	–	–	–	did not significantly alter
